Common to all, as to format: functional, cell-based
A short description of experiment [1]: Cytotoxicity against Homo sapiens (human) Burkitt lymphoma cells assessed as growth inhibition.
A further experiment has as its system HeLa. Briefly: Cytotoxicity against Homo sapiens (human) HeLa cells assessed as growth inhibition.
Another experiment deals with CCRF-CEM. Nature of the experiment: Cytotoxicity against Homo sapiens (human) CCRF-CEM cells assessed as growth inhibition.

`c1ccc(C(=NNc2nc3ccccc3o2)c2ccccn2)nc1`: the IC50 in experiment [1] (read-out: IC50) and in experiment [1] (read-out: pIC50 (converted)) was 12 nM in each case.
With `C/C(=N\Nc1nc2ccccc2o1)c1cccc[n+]1[O-]`, the results for the IC50 in experiment [1] (read-out: IC50) and in experiment [1] (read-out: pIC50 (converted)) were 27 nM and 26.9 nM, respectively.
For the molecule `C/C(=N\Nc1nc2ccccc2o1)c1ccc(C)nn1`, the IC50 in experiment [1] (read-out: IC50) is 6270 nM; in experiment [1] (read-out: pIC50 (converted)) it was 6310 nM.
In the case of `CC(C)/C(=N\Nc1nc2ccccc2o1)c1ccccn1`, the IC50 in experiment [1] (read-out: IC50) was 14 nM; in experiment [1] (read-out: pIC50 (converted)), 14.1 nM.
Taken in the same sequence, the figures for `c1ccc(/C(=N\Nc2nc3ccccc3o2)c2ccccn2)cc1` were 120 nM and 120 nM.
The corresponding values for `C/C(=N\Nc1nc2ccccc2o1)c1ncccn1` are 30 nM and 30.2 nM.
The corresponding values for `C/C(=N\Nc1nc2ccccc2o1)c1cc(C)ncn1` are 42 nM and 41.7 nM.
Take `C/C(=N\N(C)c1nc2ccccc2o1)c1ccccn1`: the IC50 in experiment [1] (read-out: IC50) was over 50000 nM.
On the same count and under the same terms, to `c1ccc(C/C(=N\Nc2nc3ccccc3o2)c2ccccn2)cc1` belongs over 10000 nM.
For `C/C(=N\Nc1nc2ccccc2o1)c1nccc2ccccc12`, the IC50 in experiment [1] (read-out: IC50) and in experiment [1] (read-out: pIC50 (converted)) was 200 nM each time.
Take `C/C(=N\Nc1nc2ccccc2o1)c1cccnn1`: the IC50 in experiment [1] (read-out: IC50) is 1300 nM; in experiment [1] (read-out: pIC50 (converted)), 1290 nM.
For the molecule `C/C(=N\Nc1nc2ccccc2o1)c1cc2ccccc2cn1`, the IC50 in experiment [1] (read-out: IC50) is 30 nM; in experiment [1] (read-out: pIC50 (converted)) it was 30.2 nM.
`C/C(=N\Nc1nc2ccccc2o1)c1nccnc1C`: the IC50 was 186 nM with HeLa, 129 nM in the experiment on CCRF-CEM, 900 nM in experiment [1] (read-out: IC50) and 891 nM in experiment [1] (read-out: pIC50 (converted)).
Consider `C/C(=N\Nc1nc2ccccc2o1)c1ccncn1`, for which the IC50 was 144 nM in experiment [1] (read-out: IC50) and 145 nM in experiment [1] (read-out: pIC50 (converted)).
As to `C/C(=N\Nc1nc2ccccc2o1)c1cnc(C)cn1`, the IC50 is 150 nM in experiment [1] (read-out: IC50) and 151 nM in experiment [1] (read-out: pIC50 (converted)).
For `CC/C(=N\Nc1nc2ccccc2o1)c1ccccn1`, the IC50 in the experiment on HeLa was 51.3 nM; in experiment [1] (read-out: IC50) it was 2 nM; in experiment [1] (read-out: pIC50 (converted)), 2 nM.
On to `C(=N\Nc1nc2ccccc2o1)/c1ccccn1`, for which the results for the IC50 in experiment [1] (read-out: IC50) and in experiment [1] (read-out: pIC50 (converted)) were 5 nM and 5.01 nM, respectively.
For `C/C(=N\Nc1nc2ccccc2o1)c1ccc2ccccc2n1`, the IC50 is 5490 nM in experiment [1] (read-out: IC50) and 5500 nM in experiment [1] (read-out: pIC50 (converted)).
Consider `c1ccc(/C(=N/Nc2nc3ccccc3o2)C2CC2)nc1`, for which the figures for the IC50 in experiment [1] (read-out: IC50) and in experiment [1] (read-out: pIC50 (converted)) were 185 nM and 186 nM, respectively.
In the case of `CCC/C(=N\Nc1nc2ccccc2o1)c1ccccn1`, the IC50 in experiment [1] (read-out: IC50) was 6 nM; in experiment [1] (read-out: pIC50 (converted)), 6.03 nM.
In the case of `C/C(=N\Nc1nc2ccccc2o1)c1cccnc1`, the IC50 in experiment [1] (read-out: IC50) was over 100000 nM.
For the molecule `C/C(=N\Nc1nc2ccccc2o1)c1ccccn1`, the IC50 in experiment [1] (read-out: IC50) is 9 nM; in experiment [1] (read-out: pIC50 (converted)), 8.91 nM.
For `CC(C)(C)/C(=N\Nc1nc2ccccc2o1)c1ccccn1`, the IC50 in experiment [1] (read-out: IC50) was over 10000 nM.

(Values after ChEMBL document CHEMBL3045998, “QSAR analysis of 2-benzoxazolyl hydrazone derivatives for anticancer activity and its possible target prediction” (Med Chem Res, 2012).)
